Measured values from US11369609B2, “Small molecule Wnt inhibitor as treatment for dyslipidemia” (Yale University, priority 2019, dated 2022).
Entries after “also recorded” stand apart in the source; their conditions may differ.

Key:
Type in all cases: in vivo
[1] = tested on: kidney endothelial cells; experiment: Fatty acid uptake in isolated kidney endothelial cells; details: diabetic mice, radiolabeled [14C]palmitate uptake
Procedure: Endothelial cells from the kidneys of non-diabetic and diabetic mice were isolated using a standardized kit (Miltenyl Biotech, USA) by following the manufacturer's instructions. Briefly, kidneys were isolated and minced into small pieces. Using a series of enzymatic reactions by treating the tissue with trypsin and Collagenase type I solution, a single cell suspension was created. The pellet was dissolved with CD31 magnetic beads and the CD31-labelled cells were separated on a magnetic separator. The cells were further purified on a column. Cell number was counted by hemocytometer and cells were plated on 0.1% gelatin coated Petri dishes.
Cultured isolated kidney endothelial cells were incubated with medium containing 2 μCi [^14C]palmitate. [^14C]-palmitate uptake was measured by liquid scintillation counting.
It is increasingly recognized that defects in central metabolism contribute to kidney fibrosis (69, 76). Defective FA metabolism in EC leads to EndMT events (77). To investigate whether FA metabolism was deranged in the model, radiolabeled [^14C]palmitate uptake experiments were performed in isolated EC from mouse kidneys. […] FA oxidation (FAO) was also assessed by measuring the ^14CO2 release from radiolabeled [^14C]palmitate in cultured EC isolated from kidneys. […]

[2] = tested on: canonical Wnt signaling; experiment: Plasma cytokine array analysis (Luminex) in wnti-treated diabetic mice
Procedure: FIG. 22. […] Cytokines and chemokines were measured in plasma by using the cytokine array analysis (Luminex). The plasma of wnti-treated diabetic mice was analyzed for cytokine array analysis. N=5/group. Data are shown as mean±SEM. Tukey test was used for the analysis of statistical significance. *p<0.05.
(§1) To determine whether inhibition of the Wnt signaling pathway could ameliorate the observed fibrosis, LGK974, a small molecule inhibitor of all secreted Wnts (43), was utilized. FIGS. 21A-21B depict the schematic diagram showing the experimental protocol for LGK974 treatment in diabetic CD-1 and UUO mice.

[3] = tested on: canonical Wnt signaling; experiment: Renal fibrosis in STZ-induced diabetic CD-1 mice treated with Wnt inhibitor
Procedure: All experiments were performed in accordance with the National Institute of Health (NIH) Guidelines for the Care of Laboratory Animals. Mice lacking the endothelial glucocorticoid receptor (GR) (known as GR^ECKO) and those lacking this receptor on the Apo E null background (DKO) were generated as previously described (6). The induction of diabetes in CD-1 mice and C57B/L6 mice was performed according to previously established experimental protocols (38-42). Briefly, diabetes was induced in 10-week-old GR^ECKO mice with five consecutive intraperitoneal (IP) doses of streptozotocin (STZ) 50 mg/kg in 10 mmol/L citrate buffer (pH 4.5). Wnt inhibitor (LGK974) was provided to GR^ECKO and control littermate at 5 mg/kg at a frequency of six doses per week for 8 weeks (43). Etomoxir (20 mg/kg) and c75 (15 mg/kg) were dosed (ip) three times per week for 3 weeks in the GR^ECKO and control littermate. A single IP dose of 200 mg/kg STZ was used to induce diabetes in CD-1 mice. Fenofibrate (100 mg/kg), simvastatin (40 mg/kg), were dosed orally for 4 weeks in diabetic CD-1 mice. All mice were sacrificed after 4 weeks of treatment and tissues and blood were harvested. Urine albumin levels were assayed using a Mouse Albumin ELISA Kit (Exocell, Philadelphia, Pa.).
A point-counting method was utilized to evaluate the relative area of the mesangial matrix. PAS-stained glomeruli from each mouse were analyzed using a digital microscope screen grid containing 540 (27×20) points. Masson's trichrome-stained images were evaluated by ImageJ software, and the fibrotic areas were estimated.
Deparaffinized sections were incubated with picrosirius red solution for 1 hour at room temperature. The slides were washed twice with acetic acid solution for 30 seconds per wash. The slides were then dehydrated in absolute alcohol three times, cleared in xylene, and mounted with a synthetic resin. Sirius red staining was analyzed using ImageJ software, and fibrotic areas were quantified.
Paraffin-embedded kidney sections (5 μm thick) were deparaffinized and rehydrated (2 min in xylene, four times; 1 min in 100% ethanol, twice; 1 min in 95% ethanol; 45 s in 70% ethanol; and 1 min in distilled water), and the antigen was retrieved in a 10 mM citrate buffer pH 6 at 98° C. for 60 min. To block the endogenous peroxidase, all sections were incubated in 0.3% hydrogen peroxide for 10 min. The immunohistochemistry was performed using a Vectastain ABC Kit (Vector Laboratories, Burlingame, Calif.). Mouse anti-[…] antibody (1:100) and CPT1a (Abnova; H00001374-DO1P; 1:100) antibody was used. In the negative controls, the primary antibody was omitted and replaced with the blocking solution.
Frozen kidney sections (5 μm) were used for immunofluorescence; double positive labeling with CD31/αSMA, CD31/TGFβR1 and E-cadherin/αSMA was measured. Briefly, frozen sections were dried and placed in acetone for 10 min at −30° C. Once the sections were dried, they were washed twice in phosphate-buffered saline (PBS) for 5 min and then blocked in 2% bovine serum albumin/PBS for 30 min at room temperature. Thereafter, the sections were incubated in primary antibody (1:100) for 1 hour and washed in PBS (5 min) three times. Next, the sections were incubated with the secondary antibodies for 30 min, washed with PBS three times (5 min each), and mounted with mounting medium with DAPI (Vector Laboratories, Burlingame, Calif.). The immune-labeled sections were analyzed by fluorescence microscopy. For each mouse, original magnification of ×400 pictures were obtained from six different areas, and quantification was performed.
as §1

[4] = diabetic CD-1 mice, LGK974 5 mg/kg

## Cc1cc(-c2ncc(CC(=O)Nc3ccc(-c4cnccn4)cn3)cc2C)ccn1 [LGK974]
[1]
  FA uptake in isolated kidney EC: suppressed FA uptake
[2]
  cytokine- and chemokine reprogramming in plasma: disrupts the cytokine- and chemokine reprogramming
  plasma CCL4 level: significantly suppressed
  plasma CCL5 level: elevating
  plasma G-CSF level: significantly suppressed
  plasma IL-1β level: significantly suppressed
  plasma IL-6 level: significantly suppressed
  plasma IL-10 level: significantly suppressed
  plasma MCP-1 level: significantly suppressed
  plasma TNFα level: significantly suppressed
[3]; [4]
  ECM deposition: greatly diminished
  collagen accumulation: greatly diminished
  glomerulosclerosis: greatly diminished
  relative area fibrosis: greatly diminished
[3]; diabetic mice, kidney CD31-positive cells
  endothelial GR level: significantly restored
[3]; diabetic mice, kidney immunohistochemistry
  level of β-catenin: suppressed
[3]; mouse model of diabetic kidney disease
  canonical Wnt signaling: clearly suppressed
[3]; mouse model of diabetic kidney disease (b57 legend also UUO mice)
  fibrogenic phenotype: substantially improved; also recorded: abolishes the fibrogenic phenotype
